One assay concerns the target HDAC9 (Homo sapiens (Human), UniProt Q9UKV0). Description: HDAC9 inhibition. In kind it is biochemical.
Another assay has as its system MCF7 Breast Tumour Cell. The assay is described as follows: MCF7 Breast Tumour Cell Proliferation Inhibition. In kind it is cell-based. As to conditions: Homo sapiens; MCF7 cells.
In another assay the target is HDAC6 (Homo sapiens (Human), UniProt Q9UBN7). Description: HDAC6 inhibition. In kind it is biochemical.
Assay [1] deals with Total HDAC (HeLa Nuclear Extracts). Description: Total HDAC inhibition (HeLa nuclear extracts). In kind it is biochemical.
The next assay has as its target HDAC1 (Homo sapiens (Human), UniProt Q13547). Description: HDAC1 inhibition. Type of assay: biochemical.
A further assay concerns the target HDAC2 (Homo sapiens (Human), UniProt Q92769). The assay is described as follows: HDAC2 inhibition. In kind it is biochemical.
Another assay has as its target HDAC4 (Homo sapiens (Human), UniProt P56524). The assay is described as follows: HDAC4 inhibition. In kind it is biochemical.
The target in the next assay is HDAC3 (Homo sapiens (Human), UniProt O15379). The assay is described as follows: HDAC3 inhibition. In kind it is biochemical.
Chain of HDAC3 (O15379 whole entry, species assumed): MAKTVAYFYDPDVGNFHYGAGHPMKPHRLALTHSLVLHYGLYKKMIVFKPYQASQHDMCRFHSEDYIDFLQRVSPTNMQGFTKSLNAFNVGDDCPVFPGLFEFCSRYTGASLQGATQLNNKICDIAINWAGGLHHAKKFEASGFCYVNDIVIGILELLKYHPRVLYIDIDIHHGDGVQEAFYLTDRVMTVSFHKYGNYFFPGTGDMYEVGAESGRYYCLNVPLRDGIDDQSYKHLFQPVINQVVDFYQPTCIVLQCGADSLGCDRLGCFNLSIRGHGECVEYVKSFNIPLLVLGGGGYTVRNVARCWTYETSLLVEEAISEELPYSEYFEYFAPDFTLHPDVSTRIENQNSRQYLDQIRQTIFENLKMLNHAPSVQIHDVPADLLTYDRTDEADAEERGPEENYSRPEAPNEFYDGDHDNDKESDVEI
Chain of HDAC3 (Q9Y618 395-489 partner, species assumed): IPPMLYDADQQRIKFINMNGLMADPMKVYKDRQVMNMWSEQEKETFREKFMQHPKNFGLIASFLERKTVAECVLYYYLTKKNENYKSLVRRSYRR
The next assay deals with TNFα. Description: TNFα inhibition (LPS-stimulated human PBMCs). Type of assay: cell-based. As to conditions: PBMC.
The target of a further assay is HDAC8 (Homo sapiens (Human), UniProt Q9BY41). The assay is described as follows: HDAC8 inhibition. In kind it is biochemical.
In another assay the target is HDAC11 (Homo sapiens (Human), UniProt Q96DB2). The assay is described as follows: HDAC11 inhibition. In kind it is biochemical.
The next assay deals with HDAC5 (Homo sapiens (Human), UniProt Q9UQL6). Description: HDAC5 inhibition. Type of assay: biochemical.
The target of another assay is HDAC10 (Homo sapiens (Human), UniProt Q969S8). The assay is described as follows: HDAC10 inhibition. Type of assay: biochemical.

Chain of HDAC2 (Q92769 whole entry, species assumed): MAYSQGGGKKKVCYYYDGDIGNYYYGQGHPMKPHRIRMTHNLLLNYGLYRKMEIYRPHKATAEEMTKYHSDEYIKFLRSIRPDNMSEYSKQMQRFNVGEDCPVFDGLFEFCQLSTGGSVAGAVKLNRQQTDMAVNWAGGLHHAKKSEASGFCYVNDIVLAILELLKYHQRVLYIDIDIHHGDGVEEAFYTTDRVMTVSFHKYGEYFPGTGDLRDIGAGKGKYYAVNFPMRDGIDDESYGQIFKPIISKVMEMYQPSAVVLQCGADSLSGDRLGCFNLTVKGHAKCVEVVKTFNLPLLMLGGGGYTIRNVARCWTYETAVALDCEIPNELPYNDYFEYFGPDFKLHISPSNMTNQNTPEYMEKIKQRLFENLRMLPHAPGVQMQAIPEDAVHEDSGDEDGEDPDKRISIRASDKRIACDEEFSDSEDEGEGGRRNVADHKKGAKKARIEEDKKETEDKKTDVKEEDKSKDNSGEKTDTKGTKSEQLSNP
Chain of HDAC1 (Q13547 whole entry, species assumed): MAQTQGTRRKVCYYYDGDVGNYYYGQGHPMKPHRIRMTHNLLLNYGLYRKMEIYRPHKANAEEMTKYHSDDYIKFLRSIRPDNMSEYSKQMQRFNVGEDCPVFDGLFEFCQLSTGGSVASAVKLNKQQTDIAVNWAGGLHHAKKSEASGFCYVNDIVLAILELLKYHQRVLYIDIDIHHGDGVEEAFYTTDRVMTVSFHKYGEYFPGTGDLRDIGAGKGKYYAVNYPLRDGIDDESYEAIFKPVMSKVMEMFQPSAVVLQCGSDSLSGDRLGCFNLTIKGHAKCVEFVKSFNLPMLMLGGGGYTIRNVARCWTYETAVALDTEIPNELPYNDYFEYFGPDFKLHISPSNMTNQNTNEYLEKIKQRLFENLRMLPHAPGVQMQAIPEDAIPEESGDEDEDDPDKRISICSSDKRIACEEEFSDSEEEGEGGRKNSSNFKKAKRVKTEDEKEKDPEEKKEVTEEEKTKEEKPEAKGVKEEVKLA
Chain of HDAC9 (Q9UKV0 whole entry, species assumed): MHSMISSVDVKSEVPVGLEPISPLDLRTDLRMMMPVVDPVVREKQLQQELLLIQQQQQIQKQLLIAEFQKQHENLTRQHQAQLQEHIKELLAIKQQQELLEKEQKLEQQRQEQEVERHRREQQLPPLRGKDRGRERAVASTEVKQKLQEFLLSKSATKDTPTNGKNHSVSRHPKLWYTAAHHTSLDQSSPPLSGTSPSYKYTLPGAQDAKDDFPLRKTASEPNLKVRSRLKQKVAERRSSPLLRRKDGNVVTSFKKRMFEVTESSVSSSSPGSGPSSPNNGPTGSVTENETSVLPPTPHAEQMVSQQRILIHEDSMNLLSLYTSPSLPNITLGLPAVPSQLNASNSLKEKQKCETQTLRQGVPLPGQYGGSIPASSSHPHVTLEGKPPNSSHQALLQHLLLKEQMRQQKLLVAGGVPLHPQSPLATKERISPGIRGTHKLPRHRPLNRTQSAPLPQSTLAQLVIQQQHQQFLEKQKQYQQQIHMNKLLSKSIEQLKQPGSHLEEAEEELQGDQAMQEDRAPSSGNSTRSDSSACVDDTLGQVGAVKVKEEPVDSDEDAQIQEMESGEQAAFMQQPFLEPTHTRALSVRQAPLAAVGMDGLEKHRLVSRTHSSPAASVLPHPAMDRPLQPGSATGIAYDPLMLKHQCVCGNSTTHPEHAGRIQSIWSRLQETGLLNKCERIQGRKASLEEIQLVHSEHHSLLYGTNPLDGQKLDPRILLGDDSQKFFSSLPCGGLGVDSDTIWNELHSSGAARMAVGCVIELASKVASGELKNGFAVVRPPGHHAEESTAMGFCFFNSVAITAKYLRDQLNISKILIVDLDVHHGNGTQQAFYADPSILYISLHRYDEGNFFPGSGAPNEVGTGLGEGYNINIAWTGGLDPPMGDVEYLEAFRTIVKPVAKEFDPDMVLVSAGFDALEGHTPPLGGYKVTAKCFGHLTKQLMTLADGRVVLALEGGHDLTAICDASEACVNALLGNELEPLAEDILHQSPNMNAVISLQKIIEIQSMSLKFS
Chain of HDAC6 (Q9UBN7 whole entry, species assumed): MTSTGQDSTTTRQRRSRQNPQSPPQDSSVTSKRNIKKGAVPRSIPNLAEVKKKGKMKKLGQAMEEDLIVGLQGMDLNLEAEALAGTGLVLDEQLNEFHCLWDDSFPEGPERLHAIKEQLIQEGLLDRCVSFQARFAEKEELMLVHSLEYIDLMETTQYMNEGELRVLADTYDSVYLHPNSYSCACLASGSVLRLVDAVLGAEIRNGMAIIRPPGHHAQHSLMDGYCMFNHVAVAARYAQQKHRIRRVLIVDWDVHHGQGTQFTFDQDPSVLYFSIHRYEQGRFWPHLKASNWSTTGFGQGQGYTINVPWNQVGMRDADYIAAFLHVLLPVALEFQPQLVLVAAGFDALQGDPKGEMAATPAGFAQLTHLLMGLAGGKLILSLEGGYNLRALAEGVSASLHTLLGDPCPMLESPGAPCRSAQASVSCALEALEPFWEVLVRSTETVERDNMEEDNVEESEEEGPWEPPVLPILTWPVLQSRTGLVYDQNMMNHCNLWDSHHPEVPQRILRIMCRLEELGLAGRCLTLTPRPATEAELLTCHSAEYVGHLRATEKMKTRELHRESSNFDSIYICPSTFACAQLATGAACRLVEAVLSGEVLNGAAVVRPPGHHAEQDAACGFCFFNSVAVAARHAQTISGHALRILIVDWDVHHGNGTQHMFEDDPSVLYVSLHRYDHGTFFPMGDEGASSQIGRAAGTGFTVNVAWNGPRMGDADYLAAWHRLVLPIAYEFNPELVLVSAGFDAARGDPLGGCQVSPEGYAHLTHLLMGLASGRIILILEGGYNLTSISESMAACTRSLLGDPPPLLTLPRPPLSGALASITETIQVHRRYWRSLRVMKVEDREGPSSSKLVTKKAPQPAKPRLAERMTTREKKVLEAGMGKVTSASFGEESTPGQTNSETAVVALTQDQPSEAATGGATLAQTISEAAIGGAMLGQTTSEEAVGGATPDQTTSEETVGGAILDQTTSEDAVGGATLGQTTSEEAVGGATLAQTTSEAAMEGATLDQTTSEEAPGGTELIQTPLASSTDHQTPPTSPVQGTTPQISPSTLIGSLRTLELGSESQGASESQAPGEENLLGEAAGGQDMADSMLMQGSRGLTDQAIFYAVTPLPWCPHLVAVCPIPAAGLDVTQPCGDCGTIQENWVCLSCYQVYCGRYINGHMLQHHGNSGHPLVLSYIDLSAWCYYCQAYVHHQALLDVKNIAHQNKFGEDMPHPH
Chain of HDAC4 (P56524 whole entry, species assumed): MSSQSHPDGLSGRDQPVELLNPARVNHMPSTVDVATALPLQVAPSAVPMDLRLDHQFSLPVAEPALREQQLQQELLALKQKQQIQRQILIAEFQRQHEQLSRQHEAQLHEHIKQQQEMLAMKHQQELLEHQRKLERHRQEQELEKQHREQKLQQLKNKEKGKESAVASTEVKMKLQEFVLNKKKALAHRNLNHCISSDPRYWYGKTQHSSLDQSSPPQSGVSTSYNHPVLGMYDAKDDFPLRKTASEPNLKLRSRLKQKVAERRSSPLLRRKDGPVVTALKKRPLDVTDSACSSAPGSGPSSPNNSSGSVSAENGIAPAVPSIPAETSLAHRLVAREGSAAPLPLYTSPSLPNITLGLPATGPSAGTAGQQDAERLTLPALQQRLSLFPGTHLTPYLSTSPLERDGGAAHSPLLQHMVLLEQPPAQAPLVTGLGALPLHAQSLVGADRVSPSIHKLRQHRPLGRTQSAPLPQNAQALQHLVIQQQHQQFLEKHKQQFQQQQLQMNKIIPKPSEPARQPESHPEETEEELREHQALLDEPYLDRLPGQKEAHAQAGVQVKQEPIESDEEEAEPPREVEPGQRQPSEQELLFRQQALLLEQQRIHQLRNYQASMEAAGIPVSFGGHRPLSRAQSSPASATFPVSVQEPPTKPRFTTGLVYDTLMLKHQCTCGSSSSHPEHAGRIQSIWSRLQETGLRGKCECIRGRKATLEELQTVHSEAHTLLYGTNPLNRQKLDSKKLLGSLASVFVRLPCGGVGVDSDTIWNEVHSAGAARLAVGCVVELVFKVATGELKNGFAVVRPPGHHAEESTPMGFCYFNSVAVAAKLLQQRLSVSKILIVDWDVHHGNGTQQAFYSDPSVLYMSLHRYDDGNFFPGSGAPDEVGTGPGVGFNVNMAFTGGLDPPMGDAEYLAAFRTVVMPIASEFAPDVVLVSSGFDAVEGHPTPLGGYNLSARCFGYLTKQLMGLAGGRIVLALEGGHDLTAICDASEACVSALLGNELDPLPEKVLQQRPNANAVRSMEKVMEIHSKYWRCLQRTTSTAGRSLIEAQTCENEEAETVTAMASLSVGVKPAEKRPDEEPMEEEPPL

On to `COc1ccc(N(CCCCCCC(=O)NO)c2ccccn2)nc1` [Example 11, N-Hydroxy-7-((5-methoxypyridin-2-yl)(pyridin-2-yl)amino)heptanamide], for which the IC50 (commonly the concentration needed to halve the response being measured) on HDAC9 is 759 nM; in the assay on MCF7 Breast Tumour Cell, 292 nM; against HDAC6, 13 nM; in assay [1] it was 406 nM; on HDAC1, 182 nM; on HDAC2 it was 883 nM.

As to `O=C(CCCCCC=C(c1ccccn1)c1ccccn1)NO` [Example 5, N-Hydroxy-8,8-di(pyridin-2-yl)oct-7-enamide], the figures for the IC50 (against HDAC6; in [1]; on HDAC1) were 22 nM, 415 nM and 642 nM, respectively.

Regarding `Cc1cccc(-c2ccnc(N(CCCCCCC(=O)NO)c3ccccn3)c2)c1` [Example 27, 7-[Pyridin-2-yl-(4-m-tolyl-pyridin-2-yl)-amino]-heptanoic acid hydroxyamide], the figures for the IC50 (in the assay with MCF7 Breast Tumour Cell; in [1]) were 81 nM and 1680 nM, respectively.

With `O=C(CCCCCCN(c1ccccn1)c1cc(-c2ccc(F)cc2)ccn1)NO` [Example 21, 7-{[4-(4-Fluoro-phenyl)-pyridin-2-yl]-pyridin-2-yl-amino}-heptanoic acid hydroxyamide], in assay [1], it took 1080 nM to reach half-maximal inhibition (IC50). In other words, the single-digit micromolar range.

Take `CC(C)Oc1ccnc(N(CCCCCCC(=O)NO)c2ccccn2)c1` [Example 19, 7-[(4-Isopropoxy-pyridin-2-yl)-pyridin-2-yl-amino]heptanoic acid hydroxyamide]: the figures for the IC50 (in the assay with MCF7 Breast Tumour Cell; in assay [1]) were 478 nM and 326 nM, respectively.

Regarding `COc1ccnc(N(CCCCCCC(=O)NO)c2ccccn2)c1` [Example 16, 7-[(4-Methoxy-pyridin-2-yl)-pyridin-2-yl-amino]-heptanoic acid hydroxyamide], the concentration for half-maximal inhibition (IC50) in the assay with MCF7 Breast Tumour Cell is 1090 nM; in assay [1], 1080 nM.

In the case of `O=C(CCCCCCN(c1ccccn1)c1cc2ccccc2cn1)NO` [Example 14, 7-(Isoquinolin-3-yl-pyridin-2-yl-amino)-heptanoic acid hydroxyamide], the IC50 at HDAC9 came out at 145 nM; in the assay on MCF7 Breast Tumour Cell it was 169 nM; against HDAC6, 2 nM; in assay [1], 337 nM; against HDAC1, 64 nM; on HDAC2, 306 nM.

With `O=C(CCCCCN(c1ccccn1)c1ccccn1)NO` [Example 2, 6-(Dipyridin-2-ylamino)-N-hydroxyhexanamide], the results for the IC50 (with MCF7 Breast Tumour Cell; in assay [1]) were 2340 nM and 2490 nM, respectively.

For the molecule `Cc1ccnc(N(CCCCCCC(=O)NO)c2ccccn2)c1` [Example 7, N-Hydroxy-7-((4-methylpyridin-2-yl)(pyridin-2-yl)amino)heptanamide], the IC50 in the assay on MCF7 Breast Tumour Cell turned out to be 448 nM; in [1], 778 nM.

Take `O=C(CCCCCCN(c1ccccn1)c1cc(-c2ccccc2F)ccn1)NO` [Example 26, 7-{[4-(2-Fluoro-phenyl)-pyridin-2-yl]-pyridin-2-yl-amino}-heptanoic acid hydroxyamide]: in the assay on MCF7 Breast Tumour Cell, the IC50 worked out at 200 nM. This lies in the sub-micromolar range.

For `Nc1ccc(-c2ccnc(N(CCCCCCC(=O)NO)c3ccccn3)c2)cc1` [Example 22, 7-{[4-(4-Amino-phenyl)-pyridin-2-yl]-pyridin-2-yl-amino}-heptanoic acid hydroxyamide], the IC50 in the assay on MCF7 Breast Tumour Cell is 39 nM; in assay [1], 298 nM.

In the assay on MCF7 Breast Tumour Cell, `O=C(CCCCCCC(c1ccccn1)c1ccccn1)NO` [Example 6] displayed an IC50 of 445 nM.

For the molecule `O=C(CCCCCCN(c1ccccn1)c1ccccn1)NO` [Example 3, 7-(Dipyridin-2-ylamino)-N-hydroxyheptanamide], the IC50 came out at 307 nM against HDAC4; 710 nM against HDAC3; 9 nM against HDAC6; 245 nM in assay [1]; 100 nM in the assay with TNFα; 1540 nM against HDAC2.

On to `CCOc1ccnc(N(CCCCCCC(=O)NO)c2ccccn2)c1` [Example 17, 7-[(4-Ethoxy-pyridin-2-yl)-pyridin-2-yl-amino]-heptanoic acid hydroxyamide], for which the IC50 in the assay on MCF7 Breast Tumour Cell turned out to be 456 nM; in [1] it was 598 nM.

In the case of `O=C(CCCCC=C(c1ccccn1)c1ccccn1)NO` [Example 1, N-Hydroxy-7,7-di(pyridin-2-yl)hept-6-enamide], the IC50 stood at 600 nM in the assay on MCF7 Breast Tumour Cell, 68 nM against HDAC6, 950 nM in assay [1] and 158 nM at HDAC1.

As to `O=C(CCCCCCN(c1ccccn1)c1cc(OCc2ccccc2)ccn1)NO` [Example 15, 7-[(4-Benzyloxy-pyridin-2-yl)-pyridin-2-yl-amino]-heptanoic acid hydroxyamide], the IC50 against HDAC9 was determined as 423 nM; in the assay on MCF7 Breast Tumour Cell, 411 nM; against HDAC6, 3 nM; in [1] it was 1260 nM; against HDAC1, 151 nM; at HDAC2, 612 nM.

For the molecule `CCCOc1ccnc(N(CCCCCCC(=O)NO)c2ccccn2)c1` [Example 18, 7-[(4-Propoxy-pyridin-2-yl)-pyridin-2-yl-amino]-heptanoic acid hydroxyamide], the results for the IC50 (in the assay on MCF7 Breast Tumour Cell; in assay [1]) were 574 nM and 822 nM, respectively.

Consider `O=C(CCCCCCN(c1ccccn1)c1cc(-c2ccccc2Cl)ccn1)NO` [Example 25, 7-{[4-(2-Chloro-phenyl)-pyridin-2-yl]-pyridin-2-yl-amino}-heptanoic acid hydroxyamide], for which the figures for the IC50 (in the assay on MCF7 Breast Tumour Cell; in assay [1]) were 210 nM and 1080 nM, respectively.

The molecule `O=C(CCCCCCN(c1cccnc1)c1ccccn1)NO` [Example 20, 7-(Pyridin-3-yl-pyridin-2-yl-amino)-heptanoic acid hydroxyamide] yielded an IC50 in [1] of 539 nM.

Consider `O=C(CCCCCCN(c1ccccn1)c1ccc(-c2ccccc2)cn1)NO` [Example 12, N-Hydroxy-7-((5-phenylpyridin-2-yl)(pyridin-2-yl)amino)heptanamide], for which the IC50 was determined as 81 nM with MCF7 Breast Tumour Cell and 310 nM in assay [1].

In the case of `Cc1ccc(N(CCCCCCC(=O)NO)c2ccccn2)nc1` [Example 9, N-Hydroxy-7-((5-methylpyridin-2-yl)(pyridin-2-yl)amino)heptanamide], the IC50 stood at 759 nM at HDAC9; 697 nM in the assay with MCF7 Breast Tumour Cell; 31 nM against HDAC6; 337 nM in [1]; 453 nM against HDAC1; 1140 nM against HDAC2.

For `O=C(CCCCCCN(c1ccccn1)c1ccc2ccccc2n1)NO` [Example 4, N-Hydroxy-7-(pyridin-2-yl(quinolin-2-yl)amino)heptanamide], the IC50 against HDAC9 was found to be 90 nM; at HDAC8, 312 nM; against HDAC4 it was 545 nM; against HDAC3, 62 nM; at HDAC6, 16 nM; in assay [1], 81 nM. In addition, the IC50 against HDAC1 was 71 nM; on HDAC2, 212 nM; at HDAC11, 112 nM; on HDAC5 it was 123 nM; against HDAC10 it was 126 nM.

Regarding `Cc1ccc(-c2ccnc(N(CCCCCCC(=O)NO)c3ccccn3)c2)cc1` [Example 23, 7-[Pyridin-2-yl-(4-p-tolyl-pyridin-2-yl)-amino]-heptanoic acid hydroxyamide], the IC50 was determined as 77 nM in the assay with MCF7 Breast Tumour Cell and 1060 nM in assay [1].

As for `O=C(CCCCCCN(c1ccccn1)c1cc(-c2ccccc2)ccn1)NO` [Example 8, N-Hydroxy-7-((4-phenylpyridin-2-yl)(pyridin-2-yl)amino)heptanamide], the IC50 in the assay on MCF7 Breast Tumour Cell is 1050 nM; on HDAC6, 19 nM; in [1] it was 493 nM; on HDAC1 it was 116 nM.

Turning to `Cc1ccccc1-c1ccnc(N(CCCCCCC(=O)NO)c2ccccn2)c1` [Example 24, 7-[Pyridin-2-yl-(4-o-tolyl-pyridin-2-yl)-amino]-heptanoic acid hydroxyamide], the IC50 turned out to be 200 nM in the assay on MCF7 Breast Tumour Cell and 1620 nM in [1].

As for `O=C(CCCCCCN(c1ccccn1)c1ccc(-c2ccc(F)cc2)cn1)NO` [Example 13, 7-((5-(4-Fluorophenyl)pyridin-2-yl)(pyridin-2-yl)amino)-N-hydroxyheptanamide], the IC50 amounted to 357 nM in the assay on MCF7 Breast Tumour Cell and 521 nM in [1].

With `O=C(CCCCCCN(c1ccccn1)c1ccc(OCc2ccccc2)cn1)NO` [Example 10, 7-((5-(Benzyloxy)pyridin-2-yl)(pyridin-2-yl)amino)-N-hydroxyheptanamide], the half-inhibitory concentration (IC50) in the assay with MCF7 Breast Tumour Cell came to 285 nM; at HDAC6, 57 nM; in assay [1], 1070 nM; against HDAC1, 182 nM.

The record behind these values is patent US8748458B2, “Scriptaid isosteres and their use in therapy” (Karus Therapeutics Limited, priority 2009, dated 2014).
